Data taken from patent US20250361230A1, “LATS Inhibitors and Uses Thereof” (The USA, as Represented by the Secretary, Dept. of Heath …, priority 2022, published 2025).
Where two headings read alike, the source gives them in different places.

Assays:
Assay type in all cases: biochemical
AKT = AKT (Homo sapiens, UniProt P31749); assay: RBC HotSpot kinase assay (33P-ATP, P81 filter-binding), AKT
Outline: (§1)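 Substrate in fresh buffer receives cofactors, then kinase, then compound in DMSO for a 20 min room-temperature preincubation. Reactions start with 33P-ATP and run 2 h; phosphorylation is read by P81 filter binding, and IC50 comes from a 10-point curve.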

LATS1 = target: T1, LATS1 (Homo sapiens, UniProt O95835); assay: RBC HotSpot kinase assay (33P-ATP, P81 filter-binding), LATS1
T1 sequence (O95835 1-1130): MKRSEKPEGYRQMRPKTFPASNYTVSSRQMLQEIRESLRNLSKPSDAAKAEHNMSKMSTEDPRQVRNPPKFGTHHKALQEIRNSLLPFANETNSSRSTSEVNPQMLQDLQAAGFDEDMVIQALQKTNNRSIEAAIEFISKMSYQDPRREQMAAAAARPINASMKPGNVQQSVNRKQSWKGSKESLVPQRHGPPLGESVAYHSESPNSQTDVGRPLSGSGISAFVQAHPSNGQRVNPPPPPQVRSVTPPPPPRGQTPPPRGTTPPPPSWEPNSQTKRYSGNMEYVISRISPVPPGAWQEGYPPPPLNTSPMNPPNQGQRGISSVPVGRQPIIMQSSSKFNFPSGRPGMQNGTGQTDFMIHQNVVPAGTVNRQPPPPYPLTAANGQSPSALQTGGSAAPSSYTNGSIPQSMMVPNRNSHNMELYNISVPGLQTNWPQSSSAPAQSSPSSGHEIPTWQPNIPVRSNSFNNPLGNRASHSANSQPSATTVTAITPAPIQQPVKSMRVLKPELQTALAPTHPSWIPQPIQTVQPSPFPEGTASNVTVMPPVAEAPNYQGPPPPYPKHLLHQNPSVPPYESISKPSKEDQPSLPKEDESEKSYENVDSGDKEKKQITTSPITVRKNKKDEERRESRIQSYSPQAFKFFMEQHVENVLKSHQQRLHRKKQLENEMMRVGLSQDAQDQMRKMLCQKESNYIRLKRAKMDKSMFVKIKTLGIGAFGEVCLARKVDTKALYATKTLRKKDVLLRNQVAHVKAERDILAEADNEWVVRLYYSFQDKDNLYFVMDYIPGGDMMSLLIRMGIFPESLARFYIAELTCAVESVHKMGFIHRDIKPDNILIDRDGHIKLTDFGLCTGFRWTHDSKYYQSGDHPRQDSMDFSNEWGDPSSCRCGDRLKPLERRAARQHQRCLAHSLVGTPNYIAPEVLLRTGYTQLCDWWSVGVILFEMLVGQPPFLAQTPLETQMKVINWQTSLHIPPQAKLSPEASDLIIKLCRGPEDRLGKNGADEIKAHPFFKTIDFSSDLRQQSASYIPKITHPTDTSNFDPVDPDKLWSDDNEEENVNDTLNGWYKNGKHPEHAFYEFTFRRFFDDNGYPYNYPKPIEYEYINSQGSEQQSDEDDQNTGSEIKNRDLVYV
Outline: as §1

LATS2 = target: T2, LATS2 (Homo sapiens, UniProt Q9NRM7); assay: RBC HotSpot kinase assay (33P-ATP, P81 filter-binding), LATS2
T2 sequence (Q9NRM7 1-1088): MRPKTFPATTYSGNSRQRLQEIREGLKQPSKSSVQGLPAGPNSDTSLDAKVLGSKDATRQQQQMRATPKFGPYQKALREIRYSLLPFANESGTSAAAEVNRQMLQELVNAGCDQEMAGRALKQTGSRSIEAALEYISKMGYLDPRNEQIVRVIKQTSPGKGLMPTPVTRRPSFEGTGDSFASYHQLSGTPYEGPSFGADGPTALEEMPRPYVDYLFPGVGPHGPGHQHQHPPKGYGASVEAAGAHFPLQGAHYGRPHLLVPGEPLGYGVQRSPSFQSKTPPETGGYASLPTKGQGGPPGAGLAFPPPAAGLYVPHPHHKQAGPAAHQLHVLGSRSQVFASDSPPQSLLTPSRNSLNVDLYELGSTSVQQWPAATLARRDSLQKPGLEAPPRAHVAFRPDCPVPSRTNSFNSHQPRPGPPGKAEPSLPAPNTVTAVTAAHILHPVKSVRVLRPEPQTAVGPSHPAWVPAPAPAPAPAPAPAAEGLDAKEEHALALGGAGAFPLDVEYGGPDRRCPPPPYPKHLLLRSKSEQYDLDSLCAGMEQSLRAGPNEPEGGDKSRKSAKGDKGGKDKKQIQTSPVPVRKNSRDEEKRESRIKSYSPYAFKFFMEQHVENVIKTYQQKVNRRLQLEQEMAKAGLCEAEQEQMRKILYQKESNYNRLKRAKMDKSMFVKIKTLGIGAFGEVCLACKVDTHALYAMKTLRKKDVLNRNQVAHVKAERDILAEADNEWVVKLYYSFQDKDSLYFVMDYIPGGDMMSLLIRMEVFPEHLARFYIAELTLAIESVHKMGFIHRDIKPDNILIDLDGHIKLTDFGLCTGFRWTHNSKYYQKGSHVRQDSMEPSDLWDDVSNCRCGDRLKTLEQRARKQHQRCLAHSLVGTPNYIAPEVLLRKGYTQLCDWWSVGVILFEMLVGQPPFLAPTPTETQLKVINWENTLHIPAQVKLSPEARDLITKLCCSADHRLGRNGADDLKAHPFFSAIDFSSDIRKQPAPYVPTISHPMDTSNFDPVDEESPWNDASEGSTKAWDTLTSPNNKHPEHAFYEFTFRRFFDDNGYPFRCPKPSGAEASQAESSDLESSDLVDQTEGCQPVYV
Outline: as §1

[1] = Table 28, biochemical kinase assay, read-out: AKT IC50
[2] = Table 28, biochemical kinase assay, read-out: LATS1 IC50
[3] = Table 28, biochemical kinase assay, read-out: LATS2 IC50

Sequence of AKT (P31749 whole entry): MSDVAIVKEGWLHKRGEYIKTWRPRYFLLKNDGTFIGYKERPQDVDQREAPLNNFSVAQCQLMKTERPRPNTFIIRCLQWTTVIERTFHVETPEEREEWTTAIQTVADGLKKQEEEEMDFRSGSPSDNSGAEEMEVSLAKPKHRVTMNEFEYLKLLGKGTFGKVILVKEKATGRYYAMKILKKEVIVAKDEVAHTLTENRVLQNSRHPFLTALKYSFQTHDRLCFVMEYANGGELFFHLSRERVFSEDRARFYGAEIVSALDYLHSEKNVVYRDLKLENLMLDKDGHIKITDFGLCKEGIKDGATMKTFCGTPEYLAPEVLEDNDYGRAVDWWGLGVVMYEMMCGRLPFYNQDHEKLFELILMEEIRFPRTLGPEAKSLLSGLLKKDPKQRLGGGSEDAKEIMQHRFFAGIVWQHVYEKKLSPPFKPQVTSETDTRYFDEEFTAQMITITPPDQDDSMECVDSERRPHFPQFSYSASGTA

## COc1cc(-c2ccnc3[nH]ccc23)ccc1C1CCNCC1 [Compound 180, 4-(3-methoxy-4-(piperidin-4-yl)phenyl)-1H-pyrrolo[2,3-b]pyridine]
AKT; [1]
  IC50: 2570 nM
LATS1; [2]
  IC50: 69 nM
LATS2; [3]
  IC50: 84 nM

## Fc1cc(C2CCNCC2)ccc1-c1ccnc2[nH]ccc12 [Compound 181, 4-(2-fluoro-4-(piperidin-4-yl)phenyl)-1H-pyrrolo[2,3-b]pyridine]
AKT; [1]
  IC50: 3360 nM
LATS1; [2]
  IC50: 68 nM
LATS2; [3]
  IC50: 87 nM

## FC(F)(F)c1cc(C2CCNCC2)ccc1-c1ccnc2[nH]ccc12 [Compound 182, 4-(4-(piperidin-4-yl)-2-(trifluoromethyl)phenyl)-1H-pyrrolo[2,3-b]pyridine]
AKT; [1]
  IC50: > 10000 nM
LATS1; [2]
  IC50: 1570 nM
LATS2; [3]
  IC50: 1770 nM

## CC1CNCCC1c1ccc(-c2ccnc3[nH]ccc23)cc1 (stereo not drawn) [Compound 185, 4-(4-(3-methylpiperidin-4-yl)phenyl)-1H-pyrrolo[2,3-b]pyridine]
AKT; [1]
  IC50: 2110 nM
LATS1; [2]
  IC50: 70 nM
LATS2; [3]
  IC50: 57 nM

## Fc1cnc2[nH]ccc2c1-c1ccc(C2CCNCC2)cc1 [Compound 186, 5-fluoro-4-(4-(piperidin-4-yl)phenyl)-1H-pyrrolo[2,3-b]pyridine]
AKT; [1]
  IC50: 2050 nM
LATS1; [2]
  IC50: 36 nM
LATS2; [3]
  IC50: 68 nM

## c1cc(-c2ccc(C3CCNCC3)cc2)c2cc[nH]c2n1 [Compound 188, 4-(4-(piperidin-4-yl)phenyl)-1H-pyrrolo[2,3-b]pyridine]
AKT; [1]
  IC50: 2200 nM
LATS1; [2]
  IC50: 70 nM
LATS2; [3]
  IC50: 75 nM

## Fc1c[nH]c2nccc(-c3ccc(C4(C(F)(F)F)CCNCC4)cc3)c12 [Compound 189, 3-fluoro-4-(4-(4-(trifluoromethyl)piperidin-4-yl)phenyl)-1H-pyrrolo[2,3-b]pyridine]
AKT; [1]
  IC50: 18 nM
LATS1; [2]
  IC50: 11 nM
LATS2; [3]
  IC50: 14 nM

## Cc1nnc(C2(c3ccc(-c4ccnc5[nH]cc(F)c45)cc3)CCNCC2)o1 [Compound 190, 2-(4-(4-(3-fluoro-1H-pyrrolo[2,3-b]pyridin-4-yl)phenyl)piperidin-4-yl)-5-methyl-1,3,4-oxadiazole]
AKT; [1]
  IC50: 18 nM
LATS1; [2]
  IC50: 20 nM
LATS2; [3]
  IC50: 17 nM

## Fc1c[nH]c2nccc(-c3ccc(C4(c5nnco5)CCNCC4)cc3)c12 [Compound 191, 2-(4-(4-(3-fluoro-1H-pyrrolo[2,3-b]pyridin-4-yl)phenyl)piperidin-4-yl)-1,3,4-oxadiazole]
AKT; [1]
  IC50: 200 nM
LATS1; [2]
  IC50: 57 nM
LATS2; [3]
  IC50: 43 nM

## Cc1cnc(C2(c3ccc(-c4ccnc5[nH]cc(F)c45)cc3)CCNCC2)o1 [Compound 192, 2-(4-(4-(3-fluoro-1H-pyrrolo[2,3-b]pyridin-4-yl)phenyl)piperidin-4-yl)-5-methyloxazole]
AKT; [1]
  IC50: 25 nM
LATS1; [2]
  IC50: 29 nM
LATS2; [3]
  IC50: 20 nM

## COC(=O)C1(c2ccc(-c3ccnc4[nH]cc(F)c34)cc2)CCN(C)CC1 [Compound 193, Methyl 4-(4-(3-fluoro-1H-pyrrolo[2,3-b]pyridin-4-yl)phenyl)-1-methylpiperidine-4-carboxylate]
AKT
  IC50: 128 nM
LATS1
  IC50: 53 nM
LATS2
  IC50: 26 nM

## O=C(O)C1(c2ccc(-c3ccnc4[nH]cc(F)c34)cc2)CCNCC1 [Compound 194, 4-(4-(3-fluoro-1H-pyrrolo[2,3-b]pyridin-4-yl)phenyl)piperidine-4-carboxylic acid]
AKT; [1]
  IC50: > 10000 nM
LATS1; [2]
  IC50: > 10000 nM
LATS2; [3]
  IC50: > 10000 nM

## Cc1nnc(C2(c3ccc(-c4ccnc5[nH]cc(F)c45)cc3)CCN(C(=O)OC(C)(C)C)CC2)o1 [Compound 195, tert-butyl 4-(4-(3-fluoro-1H-pyrrolo[2,3-b]pyridin-4-yl)phenyl)-4-(5-methyl-1,3,4-oxadiazol-2-yl)piperidine-1-carboxylate]
AKT; [1]
  IC50: > 10000 nM
LATS1; [2]
  IC50: 5790 nM
LATS2; [3]
  IC50: 3520 nM

## CC(C)(C)OC(=O)N1CCC(c2ccc(-c3ccnc4[nH]cc(F)c34)cc2)(c2nnco2)CC1 [Compound 196, tert-butyl 4-(4-(3-fluoro-1H-pyrrolo[2,3-b]pyridin-4-yl)phenyl)-4-(1,3,4-oxadiazol-2-yl)piperidine-1-carboxylate]
AKT; [1]
  IC50: > 10000 nM
LATS1; [2]
  IC50: > 10000 nM
LATS2; [3]
  IC50: > 10000 nM

## Fc1c[nH]c2nccc(-c3ccc(C4(C(F)(F)F)CCNCC4)cc3Cl)c12 [Compound 197, 4-(2-chloro-4-(4-(trifluoromethyl)piperidin-4-yl)phenyl)-3-fluoro-1H-pyrrolo[2,3-b]pyridine]
AKT; [1]
  IC50: 85 nM
LATS1; [2]
  IC50: 424 nM
LATS2; [3]
  IC50: 195 nM

## COC(=O)C1(c2ccc(-c3ccnc4[nH]cc(F)c34)cc2Cl)CCNCC1 [Compound 198, methyl 4-(2-chloro-4-(3-fluoro-1H-pyrrolo[2,3-b]pyridin-4-yl)phenyl)piperidine-4-carboxylate]
AKT; [1]
  IC50: 124 nM
LATS1; [2]
  IC50: 7.4 nM
LATS2; [3]
  IC50: 10 nM

## CCC1(c2ccc(-c3ccnc4[nH]cc(F)c34)cc2Cl)CCNCC1 [Compound 199, 4-(3-chloro-4-(4-ethylpiperidin-4-yl)phenyl)-3-fluoro-1H-pyrrolo[2,3-b]pyridine]
AKT; [1]
  IC50: 463 nM
LATS1; [2]
  IC50: 38 nM
LATS2; [3]
  IC50: 34 nM

## CC1(c2ccc(-c3ccnc4[nH]cc(F)c34)cc2Cl)CCNCC1 [Compound 200, 4-(3-chloro-4-(4-methylpiperidin-4-yl)phenyl)-3-fluoro-1H-pyrrolo[2,3-b]pyridine]
AKT; [1]
  IC50: 12 nM
LATS1; [2]
  IC50: 34 nM
LATS2; [3]
  IC50: 20 nM

## CC(C)c1cc(-c2ccnc3[nH]cc(-c4ccccc4)c23)ccc1CN [Compound 202, (2-isopropyl-4-(3-phenyl-1H-pyrrolo[2,3-b]pyridin-4-yl)phenyl)methanamine]
AKT; [1]
  IC50: 743 nM
LATS1; [2]
  IC50: 17 nM
LATS2; [3]
  IC50: 7 nM

## CC(C)(C)Nc1cc(-c2ccnc3[nH]ccc23)ccc1CN [Compound 203, 2-(aminomethyl)-N-(tert-butyl)-5-(1H-pyrrolo[2,3-b]pyridin-4-yl)aniline]
AKT; [1]
  IC50: 1380 nM
LATS1; [2]
  IC50: 70.3 nM
LATS2; [3]
  IC50: 135 nM

## Fc1ccccc1CNCc1ccc(-c2ccnc3[nH]ccc23)cc1 [Compound 204, N-(4-(1H-pyrrolo[2,3-b]pyridin-4-yl)benzyl)-1-(2-fluorophenyl)methanamine]
AKT; [1]
  IC50: 1430 nM
LATS1; [2]
  IC50: 15.9 nM
LATS2; [3]
  IC50: 33.1 nM

## CC(C)(N)c1ccc(-c2ccnc3[nH]ccc23)cc1Cl [Compound 205, 2-(2-chloro-4-(1H-pyrrolo[2,3-b]pyridin-4-yl)phenyl)propan-2-amine]
AKT; [1]
  IC50: 437 nM
LATS1; [2]
  IC50: 9.5 nM
LATS2; [3]
  IC50: 31.8 nM
